From US9302999B2, “Substituted triazoles as herbicides” (E. I. DU PONT DE NEMOURS AND COMPANY, priority 2012, dated 2016)

Tests used:
Format in all cases: in vivo
[1] = test system: velvetleaf (Abutilon theophrasti); test: Test A pre-/postemergence: velvetleaf; conditions: for Velvetleaf plant response rating: Postemergence; for Plant response rating, Velvetleaf: Preemergence
Summary of the method: (§1)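 Pre: directed soil spray after planting in loam + sand. Post: same formulation (non-phytotoxic solvent + surfactant) on 1–2-leaf plants, 2–10 cm. Greenhouse ~10 d; visual injury 0–100 vs untreated.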

rice (Oryza sativa) = test: Test B flooded paddy: rice; conditions: Flood; 250 g ai/ha; applied to paddy water at 2-leaf stage; visually evaluated after 13 to 15 days
Summary of the method: (§2)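 Plants were grown to the 2-leaf stage and pots flooded to 3 cm above soil. Compounds were applied directly into the paddy water, with depth kept for the test. After 13–15 days in greenhouse, response was rated visually against controls on a 0 (no effect) to 100 (complete control) scale.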

[2] = test system: ducksalad (Heteranthera limosa); test: Test B flooded paddy: ducksalad; conditions: Flood; 250 g ai/ha; applied to paddy water at 2-leaf stage; visually evaluated after 13 to 15 days
Protocol: (§3) Seeds selected from rice (Oryza sativa), sedge, umbrella (small-flower umbrella sedge Cyperus difformis), ducksalad (Heteranthera limosa), and barnyardgrass (Echinochloa crus-galli) were grown to the 2-leaf stage for testing. At time of treatment, test pots were flooded to 3 cm above the soil surface, treated by application of test compounds directly to the paddy water, and then maintained at that water depth for the duration of the test.
(§4) Treated plants and controls were maintained in a greenhouse for 13 to 15 days, after which time all species were compared to controls and visually evaluated. Plant response ratings, summarized in Table B, are based on a scale of 0 to 100 where 0 is no effect and 100 is complete control. A dash (-) response means no test result.

corn (Zea mays) = test: Test A pre-/postemergence: corn; conditions: for Corn plant response rating: Postemergence; for Plant response rating, Corn: Preemergence
Summary of the method: as §1

[3] = test system: morningglory (Ipomoea spp.); test: Test A pre-/postemergence: morningglory; conditions: for Morningglory plant response rating: Postemergence; for Plant response rating, Morningglory: Preemergence
Summary of the method: as §1

[4] = test system: barnyardgrass (Echinochloa crus-galli); test: Test A pre-/postemergence: barnyardgrass; conditions: for Barnyardgrass plant response rating: Postemergence; for Plant response rating, Barnyardgrass: Preemergence
Summary of the method: as §1

[5] = test system: sedge, umbrella (small-flower umbrella sedge Cyperus difformis); test: Test B flooded paddy: sedge, umbrella; conditions: Flood; 250 g ai/ha; applied to paddy water at 2-leaf stage; visually evaluated after 13 to 15 days
Protocol: as §3, §4

[6] = test system: crabgrass, large (large crabgrass, Digitaria sanguinalis); test: Test A pre-/postemergence: crabgrass, large; conditions: for Crabgrass, Large plant response rating: Postemergence; for Plant response rating, Crabgrass, Large: Preemergence
Summary of the method: as §1

[7] = test system: barnyardgrass (Echinochloa crus-galli); test: Test B flooded paddy: barnyardgrass; conditions: Flood; 250 g ai/ha; applied to paddy water at 2-leaf stage; visually evaluated after 13 to 15 days
Summary of the method: as §2

[8] = test system: foxtail, giant (giant foxtail, Setaria faberii); test: Test A pre-/postemergence: foxtail, giant; conditions: for Foxtail, Giant plant response rating: Postemergence; for Plant response rating, Foxtail, Giant: Preemergence
Summary of the method: as §1

[9] = test system: wheat (Triticum aestivum); test: Test A pre-/postemergence: wheat; conditions: for Wheat plant response rating: Postemergence; for Plant response rating, Wheat: Preemergence
Summary of the method: as §1

[10] = test system: pigweed (Amaranthus retroflexus); test: Test A pre-/postemergence: pigweed; conditions: for Pigweed plant response rating: Postemergence; for Plant response rating, Pigweed: Preemergence
Summary of the method: as §1

[11] = 125 g ai/ha, 0 to 100 scale, 0 is no effect, 100 is complete control
[12] = 500 g ai/ha, visual rating on 0 to 100 scale (0 no effect, 100 complete control), approximately ten days
[13] = 125 g ai/ha, 0 to 100 scale (0 no effect, 100 complete control)
[14] = 500 g ai/ha, 0 to 100 scale, 0 is no effect, 100 is complete control

Row | SMILES | Velvetleaf plant response rating [1, 11] | Velvetleaf plant response rating [1, 12] | Plant response rating, Velvetleaf [1, 13] | Plant response rating, Velvetleaf [1, 14] | Plant response rating, Rice (0 to 100 scale, 0 is no effect, 100 is complete control) (rice (Oryza sativa)) | Plant response rating, Ducksalad (0 to 100 scale, 0 is no effect, 100 is complete control) [2] | Corn plant response rating (corn (Zea mays); [11]) | Corn plant response rating (corn (Zea mays); [12]) | Plant response rating, Corn (corn (Zea mays); [13]) | Plant response rating, Corn (corn (Zea mays); [14]) | Morningglory plant response rating [3, 11] | Morningglory plant response rating [3, 12] | Plant response rating, Morningglory [3, 13] | Plant response rating, Morningglory [3, 14] | Barnyardgrass plant response rating [4, 11] | Barnyardgrass plant response rating [4, 12] | Plant response rating, Barnyardgrass [4, 13] | Plant response rating, Barnyardgrass [4, 14] | Plant response rating, Sedge, Umbrella (0 to 100 scale, 0 is no effect, 100 is complete control) [5] | Crabgrass, Large plant response rating [6, 11] | other results
1 | Cc1nn(-c2ccccc2Cl)nc1C(=O)c1cccc(C(F)(F)F)c1 [Compound 5] | 0 | 0 | 0 | 0 | 0 | 0 | 0 | 0 | 0 | 0 | 0 | 0 | 0 | 0 | 0 | 0 | 0 | 0 | 0 | 0 | Crabgrass, Large plant response rating [6, 12]: 0; Plant response rating, Crabgrass, Large [6, 13]: 0; Plant response rating, Crabgrass, Large [6, 14]: 0; Plant response rating, Barnyardgrass (0 to 100 scale, 0 is no effect, 100 is complete control) [7]: 0; Foxtail, Giant plant response rating [8, 11]: 0; Foxtail, Giant plant response rating [8, 12]: 0; Plant response rating, Foxtail, Giant [8, 13]: 0; Plant response rating, Foxtail, Giant [8, 14]: 0; Wheat plant response rating [9, 11]: 0; Wheat plant response rating [9, 12]: 0; Plant response rating, Wheat [9, 13]: 0; Plant response rating, Wheat [9, 14]: 0; Pigweed plant response rating [10, 11]: 10; Pigweed plant response rating [10, 12]: 30; Plant response rating, Pigweed [10, 13]: 0; Plant response rating, Pigweed [10, 14]: 0
2 | CSc1ccccc1-n1nc(C)c(C(=O)c2cccc(C(F)(F)F)c2)n1 [Compound 6] | 0 | 0 | 0 | 0 | 0 | 0 | 0 | 0 | 0 | 0 | 0 | 0 | 0 | 0 | 0 | 0 | 0 | 0 | 0 | 0 | Crabgrass, Large plant response rating [6, 12]: 20; Plant response rating, Crabgrass, Large [6, 13]: 0; Plant response rating, Crabgrass, Large [6, 14]: 0; Plant response rating, Barnyardgrass (0 to 100 scale, 0 is no effect, 100 is complete control) [7]: 0; Foxtail, Giant plant response rating [8, 11]: 0; Foxtail, Giant plant response rating [8, 12]: 10; Plant response rating, Foxtail, Giant [8, 13]: 0; Plant response rating, Foxtail, Giant [8, 14]: 0; Wheat plant response rating [9, 11]: 0; Wheat plant response rating [9, 12]: 0; Plant response rating, Wheat [9, 13]: 0; Plant response rating, Wheat [9, 14]: 0; Pigweed plant response rating [10, 11]: 0; Pigweed plant response rating [10, 12]: 30; Plant response rating, Pigweed [10, 13]: 0; Plant response rating, Pigweed [10, 14]: 0
